system: Acinetobacter baumannii; test: Antimicrobial activity against Acinetobacter baumannii ATCC 19606 by broth dilution method; type: functional; conditions: ATCC 19606 = CIP 70.34 = JCM 6841

Q: For `CN(C)c1ccc(/C=C/c2cc(-c3ccc(F)cc3)cc(-c3ccc(F)cc3)[o+]2)cc1.F[B-](F)(F)F`, which MIC is on record?
A: ≥ 80 µM

Q: Which MIC does the source give for `CN(C)c1ccc(/C=C/c2cc(-c3ccc(Br)cc3)cc(-c3ccc(Br)cc3)[o+]2)cc1.F[B-](F)(F)F` here?
A: ≥ 80 µM

system: not listed separately; test: Toxicity in CD1 mouse assessed as induction of adverse clinical observations at […], iv measured after 5 mins to 14 hrs; type: organism-based; conditions: in vivo

Q: With `CN(C)c1ccc(/C=C/c2cc(-c3ccc(F)cc3)cc(-c3ccc(F)cc3)[o+]2)cc1.F[B-](F)(F)F` as the compound, how does the Activity read?
A: Non-Toxic

Q: With `CN(C)c1ccc(/C=C/c2cc(-c3ccc(Br)cc3)cc(-c3ccc(Br)cc3)[o+]2)cc1.F[B-](F)(F)F` as the compound, how does the Activity read?
A: Non-Toxic

system: not listed separately; test: AUClast in CD1 mouse at […], iv measured after 5 mins to 14 hrs by LC/MS/MS analysis; type: ADME, organism-based; design: time upper 14 hr, dose 2.5 mg/kg, time lower 0.083 hr, route intravenous; conditions: in vivo

Q: Which AUC(0-t) does the source give for `CN(C)c1ccc(/C=C/c2cc(-c3ccc(F)cc3)cc(-c3ccc(F)cc3)[o+]2)cc1.F[B-](F)(F)F` here?
A: 565 ng·h/mL

system: Enterococcus faecium; test: Antimicrobial activity against Enterococcus faecium EF1509 by broth dilution method; type: functional; conditions: not given

Q: For `CN(C)c1ccc(/C=C/c2cc(-c3ccc(F)cc3)cc(-c3ccc(F)cc3)[o+]2)cc1.F[B-](F)(F)F`, which MIC is on record?
A: 2 µM

Q: For `CN(C)c1ccc(/C=C/c2cc(-c3ccc(Br)cc3)cc(-c3ccc(Br)cc3)[o+]2)cc1.F[B-](F)(F)F`, which MIC is on record?
A: 46.8 to 80 µM

system: Staphylococcus aureus; test: Antimicrobial activity against Staphylococcus aureus ATCC […] by broth dilution method; type: functional; conditions: ATCC 29213

Q: For `CN(C)c1ccc(/C=C/c2cc(-c3ccc(F)cc3)cc(-c3ccc(F)cc3)[o+]2)cc1.F[B-](F)(F)F`, which MIC is on record?
A: 3.9 µM

Q: With `CN(C)c1ccc(/C=C/c2cc(-c3ccc(Br)cc3)cc(-c3ccc(Br)cc3)[o+]2)cc1.F[B-](F)(F)F` as the compound, how does the MIC read?
A: 23.4 to 80 µM

system: not listed separately; test: Volume of distribution at steady state in CD1 mouse at […], iv measured after 5 mins to 14 hrs by LC/MS/MS analysis; type: ADME, organism-based; conditions: CD1, mouse, in vivo, read-out: Vdss

Q: For `CN(C)c1ccc(/C=C/c2cc(-c3ccc(F)cc3)cc(-c3ccc(F)cc3)[o+]2)cc1.F[B-](F)(F)F`, which Vd is on record?
A: 46.3 L/kg

same assay, conditions: mouse, in vivo

Q: With `CN(C)c1ccc(/C=C/c2cc(-c3ccc(Br)cc3)cc(-c3ccc(Br)cc3)[o+]2)cc1.F[B-](F)(F)F` as the compound, how does the Vdss read?
A: 22.8 L/kg

system: not listed separately; test: Extrapolated AUC in CD1 mouse at […], iv measured after 5 mins to 14 hrs by LC/MS/MS analysis; type: ADME, organism-based; conditions: in vivo

Q: For `CN(C)c1ccc(/C=C/c2cc(-c3ccc(F)cc3)cc(-c3ccc(F)cc3)[o+]2)cc1.F[B-](F)(F)F`, which “%AUCextra” value is on record?
A: 2.25%

Q: Which “%AUCextra” value does the source give for `CN(C)c1ccc(/C=C/c2cc(-c3ccc(Br)cc3)cc(-c3ccc(Br)cc3)[o+]2)cc1.F[B-](F)(F)F` here?
A: 24.3%

system: not listed separately; test: Half life in CD1 mouse at […], iv measured after 5 mins to 14 hrs by LC/MS/MS analysis; type: ADME, organism-based; conditions: CD1, mouse, in vivo

Q: For `CN(C)c1ccc(/C=C/c2cc(-c3ccc(F)cc3)cc(-c3ccc(F)cc3)[o+]2)cc1.F[B-](F)(F)F`, which half-life is on record?
A: 6.81 h

same assay, conditions: mouse, in vivo

Q: Which t1/2 does the source give for `CN(C)c1ccc(/C=C/c2cc(-c3ccc(Br)cc3)cc(-c3ccc(Br)cc3)[o+]2)cc1.F[B-](F)(F)F` here?
A: 13.3 h

biological target: not listed separately; test: Binding affinity to bacterial lipid 2 by surface plasmon resonance assay; design: species or system Bacteria; conditions: not given

Q: Which Kd does the source give for `CN(C)c1ccc(/C=C/c2cc(-c3ccc(F)cc3)cc(-c3ccc(F)cc3)[o+]2)cc1.F[B-](F)(F)F` here?
A: 340 nM

Q: For `CN(C)c1ccc(/C=C/c2cc(-c3ccc(Br)cc3)cc(-c3ccc(Br)cc3)[o+]2)cc1.F[B-](F)(F)F`, which Kd is on record?
A: 150 nM

system: Staphylococcus aureus; test: Antimicrobial activity against methicillin-resistant Staphylococcus aureus HFH-30123 by broth dilution method; type: functional; conditions: not given

Q: Which MIC does the source give for `CN(C)c1ccc(/C=C/c2cc(-c3ccc(F)cc3)cc(-c3ccc(F)cc3)[o+]2)cc1.F[B-](F)(F)F` here?
A: 6.25 µM

Q: With `CN(C)c1ccc(/C=C/c2cc(-c3ccc(Br)cc3)cc(-c3ccc(Br)cc3)[o+]2)cc1.F[B-](F)(F)F` as the compound, how does the MIC read?
A: 32 µM

system: not listed separately; test: Cmax in CD1 mouse at […], iv measured after 5 mins to 14 hrs by LC/MS/MS analysis; type: ADME, organism-based; design: dose 2.5 mg/kg, route intravenous; conditions: in vivo

Q: With `CN(C)c1ccc(/C=C/c2cc(-c3ccc(F)cc3)cc(-c3ccc(F)cc3)[o+]2)cc1.F[B-](F)(F)F` as the compound, how does the Cmax read?
A: 3220 ng/mL

system: Enterococcus faecium; test: Antimicrobial activity against vancomycin-resistant Enterococcus faecium EF1509 by broth dilution method; type: functional; conditions: not given

Q: With `CN(C)c1ccc(/C=C/c2cc(-c3ccc(F)cc3)cc(-c3ccc(F)cc3)[o+]2)cc1.F[B-](F)(F)F` as the compound, how does the MIC read?
A: 1.56 µM

Q: Which MIC does the source give for `CN(C)c1ccc(/C=C/c2cc(-c3ccc(Br)cc3)cc(-c3ccc(Br)cc3)[o+]2)cc1.F[B-](F)(F)F` here?
A: 2.82 µM

system: not listed separately; test: AUC (infinity) in CD1 mouse at […], iv measured after 5 mins to 14 hrs by LC/MS/MS analysis; type: ADME, organism-based; design: dose 2.5 mg/kg, time infinity, route intravenous; conditions: in vivo

Q: For `CN(C)c1ccc(/C=C/c2cc(-c3ccc(F)cc3)cc(-c3ccc(F)cc3)[o+]2)cc1.F[B-](F)(F)F`, which AUC is on record?
A: 578 ng·h/mL

system: Staphylococcus aureus; test: Antimicrobial activity against methicillin-resistant Staphylococcus aureus 1094 by broth dilution method; type: functional; conditions: not given

Q: For `CN(C)c1ccc(/C=C/c2cc(-c3ccc(F)cc3)cc(-c3ccc(F)cc3)[o+]2)cc1.F[B-](F)(F)F`, which MIC is on record?
A: 4.42 µM

Q: Which MIC does the source give for `CN(C)c1ccc(/C=C/c2cc(-c3ccc(Br)cc3)cc(-c3ccc(Br)cc3)[o+]2)cc1.F[B-](F)(F)F` here?
A: 32 µM

system: Klebsiella pneumoniae; test: Antimicrobial activity against carbapenemase KPC producing Klebsiella pneumoniae NR-15410 by broth dilution method; type: functional; conditions: not given

Q: Which MIC does the source give for `CN(C)c1ccc(/C=C/c2cc(-c3ccc(F)cc3)cc(-c3ccc(F)cc3)[o+]2)cc1.F[B-](F)(F)F` here?
A: ≥ 80 µM

Q: Which MIC does the source give for `CN(C)c1ccc(/C=C/c2cc(-c3ccc(Br)cc3)cc(-c3ccc(Br)cc3)[o+]2)cc1.F[B-](F)(F)F` here?
A: ≥ 80 µM

system: not listed separately; test: Ratio of EC50 for human HeLa cells to MIC of Enterococcus faecium; type: toxicity; conditions: not given

Q: Which selectivity ratio does the source give for `CN(C)c1ccc(/C=C/c2cc(-c3ccc(F)cc3)cc(-c3ccc(F)cc3)[o+]2)cc1.F[B-](F)(F)F` here?
A: ≥ 80

Q: Which selectivity ratio does the source give for `CN(C)c1ccc(/C=C/c2cc(-c3ccc(Br)cc3)cc(-c3ccc(Br)cc3)[o+]2)cc1.F[B-](F)(F)F` here?
A: ≥ 80

system: not listed separately; test: Cytotoxicity against human HeLa cells incubated for 72 hrs; type: cell-based; conditions: not given

Q: With `CN(C)c1ccc(/C=C/c2cc(-c3ccc(F)cc3)cc(-c3ccc(F)cc3)[o+]2)cc1.F[B-](F)(F)F` as the compound, how does the CC50 at 72 h read?
A: ≥ 80 µg/mL

Q: With `CN(C)c1ccc(/C=C/c2cc(-c3ccc(Br)cc3)cc(-c3ccc(Br)cc3)[o+]2)cc1.F[B-](F)(F)F` as the compound, how does the CC50 at 72 h read?
A: ≥ 80 µg/mL

system: Pseudomonas aeruginosa; test: Antimicrobial activity against Pseudomonas aeruginosa PAO1 by broth dilution method; type: functional; conditions: not given

Q: Which MIC does the source give for `CN(C)c1ccc(/C=C/c2cc(-c3ccc(F)cc3)cc(-c3ccc(F)cc3)[o+]2)cc1.F[B-](F)(F)F` here?
A: ≥ 80 µM

Q: With `CN(C)c1ccc(/C=C/c2cc(-c3ccc(Br)cc3)cc(-c3ccc(Br)cc3)[o+]2)cc1.F[B-](F)(F)F` as the compound, how does the MIC read?
A: ≥ 80 µM

system: Pseudomonas aeruginosa; test: Antimicrobial activity against Pseudomonas aeruginosa ATCC 27853 by broth dilution method; type: functional; conditions: not given

Q: Which MIC does the source give for `CN(C)c1ccc(/C=C/c2cc(-c3ccc(F)cc3)cc(-c3ccc(F)cc3)[o+]2)cc1.F[B-](F)(F)F` here?
A: ≥ 80 µM

Q: For `CN(C)c1ccc(/C=C/c2cc(-c3ccc(Br)cc3)cc(-c3ccc(Br)cc3)[o+]2)cc1.F[B-](F)(F)F`, which MIC is on record?
A: ≥ 80 µM

system: not listed separately; test: Dose normalized AUClast in CD1 mouse at […], iv measured after 5 mins to 14 hrs by LC/MS/MS analysis; type: ADME, organism-based; conditions: in vivo

Q: Which AUClast/dose does the source give for `CN(C)c1ccc(/C=C/c2cc(-c3ccc(F)cc3)cc(-c3ccc(F)cc3)[o+]2)cc1.F[B-](F)(F)F` here?
A: 56.5 ng·h/mL

Q: With `CN(C)c1ccc(/C=C/c2cc(-c3ccc(Br)cc3)cc(-c3ccc(Br)cc3)[o+]2)cc1.F[B-](F)(F)F` as the compound, how does the AUClast/dose read?
A: 536 ng·h/mL

system: Pseudomonas aeruginosa; test: Antimicrobial activity against Pseudomonas aeruginosa X13273 by broth dilution method; type: functional; conditions: not given

Q: For `CN(C)c1ccc(/C=C/c2cc(-c3ccc(F)cc3)cc(-c3ccc(F)cc3)[o+]2)cc1.F[B-](F)(F)F`, which MIC is on record?
A: ≥ 80 µM

Q: With `CN(C)c1ccc(/C=C/c2cc(-c3ccc(Br)cc3)cc(-c3ccc(Br)cc3)[o+]2)cc1.F[B-](F)(F)F` as the compound, how does the MIC read?
A: ≥ 80 µM

system: Enterococcus faecium; test: Antimicrobial activity against vancomycin-resistant Enterococcus faecium F118 by broth dilution method; type: functional; conditions: not given

Q: For `CN(C)c1ccc(/C=C/c2cc(-c3ccc(F)cc3)cc(-c3ccc(F)cc3)[o+]2)cc1.F[B-](F)(F)F`, which MIC is on record?
A: 6.25 µM

Q: For `CN(C)c1ccc(/C=C/c2cc(-c3ccc(Br)cc3)cc(-c3ccc(Br)cc3)[o+]2)cc1.F[B-](F)(F)F`, which MIC is on record?
A: 5.65 µM

system: Klebsiella aerogenes; test: Antimicrobial activity against Klebsiella aerogenes ATCC 13048 by broth dilution method; type: functional; conditions: not given

Q: Which MIC does the source give for `CN(C)c1ccc(/C=C/c2cc(-c3ccc(F)cc3)cc(-c3ccc(F)cc3)[o+]2)cc1.F[B-](F)(F)F` here?
A: ≥ 80 µM

Q: For `CN(C)c1ccc(/C=C/c2cc(-c3ccc(Br)cc3)cc(-c3ccc(Br)cc3)[o+]2)cc1.F[B-](F)(F)F`, which MIC is on record?
A: ≥ 80 µM

system: not listed separately; test: Antimicrobial activity against Enterobacter cloacae ATCC 13047 by broth dilution method; type: functional, Enterobacter cloacae subsp. cloacae; conditions: not given

Q: For `CN(C)c1ccc(/C=C/c2cc(-c3ccc(F)cc3)cc(-c3ccc(F)cc3)[o+]2)cc1.F[B-](F)(F)F`, which MIC is on record?
A: ≥ 80 µM

Q: For `CN(C)c1ccc(/C=C/c2cc(-c3ccc(Br)cc3)cc(-c3ccc(Br)cc3)[o+]2)cc1.F[B-](F)(F)F`, which MIC is on record?
A: ≥ 80 µM

system: Klebsiella pneumoniae; test: Antimicrobial activity against carbapenemase KPC producing Klebsiella pneumoniae NR-15411 by broth dilution method; type: functional; conditions: not given

Q: Which MIC does the source give for `CN(C)c1ccc(/C=C/c2cc(-c3ccc(F)cc3)cc(-c3ccc(F)cc3)[o+]2)cc1.F[B-](F)(F)F` here?
A: ≥ 80 µM

Q: For `CN(C)c1ccc(/C=C/c2cc(-c3ccc(Br)cc3)cc(-c3ccc(Br)cc3)[o+]2)cc1.F[B-](F)(F)F`, which MIC is on record?
A: ≥ 80 µM

system: not listed separately; test: MRT in CD1 mouse at […], iv measured after 5 mins to 14 hrs by LC/MS/MS analysis; type: ADME, organism-based; conditions: CD1, mouse, in vivo, read-out: MRT

Q: Which MRT does the source give for `CN(C)c1ccc(/C=C/c2cc(-c3ccc(F)cc3)cc(-c3ccc(F)cc3)[o+]2)cc1.F[B-](F)(F)F` here?
A: 1.74 h

same assay, conditions: mouse, in vivo

Q: Which MRT does the source give for `CN(C)c1ccc(/C=C/c2cc(-c3ccc(Br)cc3)cc(-c3ccc(Br)cc3)[o+]2)cc1.F[B-](F)(F)F` here?
A: 7.29 h

Reference: ChEMBL document CHEMBL4340569, “Optimization of a small-molecule Lipid II binder” (Bioorg Med Chem Lett, 2019)
